Calls of active or inactive are those of the source.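 The calls were made as follows: active = compounds giving half or more protection of infected cells from virus-caused growth loss, again on retest; inactive = the rest.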
Tested on: CEM cells HIV-1 protection, formazan growth assay
Experiment: NCI AIDS Antiviral Assay
Settings: for IC50: measured here: growth of uninfected CEM cells
Outline: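 Protection of CEM cells against HIV-1 measured as cell growth via soluble formazan read-out, with five concentrations tested on both infected and uninfected cells; failure to protect may reflect toxicity.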

| SMILES | outcome | EC50 | IC50 |
| --- | --- | --- | --- |
| Cc1ccc2nc(Nc3ccccc3C)c(Nc3ccccc3C)nc2c1 | inactive |  |  |
| C1CSCCSS[C@@H]2CCCCC2SC1 (some centres not stated) |  | > 33.9 µM | > 33.9 µM |
| Cc1cc([C@H](C#N)c2nc3ccccc3[nH]2)nc(Cl)n1 |  | > 200 µM | 22.4 µM |
| C=CCC1(C(=O)OC)CCC/C(=N\O)C1 (configuration not stated) |  | > 64.6 µM | > 64.6 µM |
| O=C(N/C(=C\c1ccc(F)cc1)c1nc2ccccc2[nH]1)c1ccccc1 |  | > 191 µM | > 191 µM |
| C1CCC2(CC1)SSSC1(CCCCC1)SS2 |  | > 100 µM | > 100 µM |
| COc1cc2c(c(OC)c1OC)C1=NNC(=O)C1(C)CC2 (configuration not stated) |  | > 617 µM | 479 µM |
| O=C1/C(=C/c2cccc(F)c2)CCc2ccccc21 |  | > 14.8 µM | > 14.8 µM |
| [N-]=[N+]=CC(=O)OC1CCOCC1 |  | > 200 µM | > 200 µM |
| C[Si]1(C)[Si](C)(C)[Si](C)(C)[Si](C)(C)[Si](C)(C)[Si]1(C)C |  | > 28.8 µM | > 28.8 µM |
| CC(=O)N(C)CCc1c[nH]c2ccccc12 |  | > 200 µM | > 200 µM |
| COc1ccc(C(C#N)NNC(=O)c2ccccc2O)cc1OC (configuration not stated) |  | > 79.4 µM | 4.07 µM |
| CCOC(=O)CC(NC(=O)c1nc[nH]c1[N+](=O)[O-])C(=O)OCC (configuration not stated) |  | > 79.4 µM | 39.8 µM |
| Cc1cccc(C)c1OC(F)(F)c1nc2ccccc2o1 |  | > 200 µM | 30.2 µM |
| CN(C)c1nc2oc(-c3ccccc3)c(-c3ccccc3)c2c2nnnn12 | inactive |  |  |
| COC(=O)C1=C(\c2ccccc2)c2ccccc2C(=O)N(C2CCCCC2)/C=C\1 |  | > 200 µM | 25.7 µM |
| O=[N+]([O-])c1ccc(N/N=C/c2ccc(OCCCCCCCCCCCO)cc2)c([N+](=O)[O-])c1 |  | > 200 µM | 42.7 µM |
| CN(C)/N=C(/SS/C(=N/N(C)C)C(F)(F)F)C(F)(F)F | inactive |  |  |
| CS(=O)(=O)CS(=O)CS(=O)CS(=O)CC(NC(=O)CCC(N)C(=O)O)C(=O)O (configuration not stated) |  | > 513 µM | > 513 µM |
| O=C1CSC(c2ccc(Cl)cc2Cl)N1c1ccc(Oc2ccc(Cl)cc2)c(Cl)c1 (configuration not stated) |  | > 100 µM | 26.3 µM |
| Cc1n[n+](Cc2ccccc2)c2sc(N)nn12 |  | > 200 µM | 40.7 µM |
| CCCCCCCCCCCCCC(=O)NO |  | > 20.4 µM | > 20.4 µM |

| SMILES | outcome | EC50 | IC50 |
| --- | --- | --- | --- |
| Nc1ccnc(N)c1N=O |  | > 200 µM | 27.5 µM |
| O=c1oc2nc3ccc(Cl)cc3c(=O)n2c2ccc(Cl)cc12 |  | > 200 µM | > 200 µM |
| O=P(O)(O)C1(P(=O)(O)O)CC1 |  | > 251 µM | > 251 µM |
| CC(C)(C)OC(=O)N(CC1OC(n2cnc3c(N)ncnc32)C2OC(C)(C)OC12)OC(=O)C(C)(C)C (configuration not stated) |  | > 200 µM | > 200 µM |
| Nc1ncc(Cl)c(NCC2(CO)CC(CCc3ccccc3)C2)n1 (configuration not stated) |  | > 200 µM | 3.24 µM |
| O=[N+]([O-])c1ccc(CSc2c3ccccc3nc3ccccc23)cc1 |  | > 200 µM | 3.39 µM |
| Cc1cccc(/C=N/NC(=S)NCc2ccccn2)n1 |  | > 200 µM | 29.5 µM |
| CC(C)=CCCC1(C)C=Cc2c(c(C)cc3c2[nH]c2ccccc23)O1 (configuration not stated) |  | > 21.9 µM | 12 µM |
| CCCCCCCCOCC(COC(=O)CCCCCCC)OC(=O)CCCCCCC (configuration not stated) |  | > 151 µM | 37.2 µM |
| O=C(O)C1C=CC(c2ccc(Cl)cc2)=N1 (configuration not stated) |  | > 200 µM | > 200 µM |
| CCN(CC)P1(=O)C=C(C)C2C1C1C=C(C)C2P1(=O)N(CC)CC (configuration not stated) | inactive |  |  |
| Cc1c(NC(=S)Nc2ccc([N+](=O)[O-])cc2)c(=O)n(-c2ccccc2)n1C |  | > 200 µM | > 200 µM |
| Cc1cc(S(=O)(=O)Nc2nnc3c4scc(C)c4ncn23)c(S)cc1Cl |  | 45.7 µM | 50.1 µM |
| Cc1ccc(NC(=O)c2cc(S(=O)(=O)N3CCNNC3=O)c(S)cc2Cl)cc1 |  | 30.2 µM | 195 µM |
| Clc1ccc(CSc2ccc3nncc(SCc4ccc(Cl)c(Cl)c4)c3c2)cc1Cl |  | > 41.7 µM | 37.2 µM |
| C/C(=N\O)c1ccc2c3c(ccc([N+](=O)[O-])c13)CC2 |  | > 200 µM | 46.8 µM |
| O=C(CCCCCCCCC(=O)NN1C(=O)/C(=C\c2ccc(O)c(O)c2)SC1c1c(O)ccc2ccccc12)NN1C(=O)C(=Cc2ccc(O)c(O)c2)SC1c1c(O)ccc2ccccc12 (configuration not stated) |  | > 200 µM | 1 µM |
| CCOC(=O)/C=C1\Oc2ccccc2C1(C)O (configuration not stated) |  | > 562 µM | > 562 µM |
| Cc1ccc(S(=O)(=O)N/N=C\c2c3ccccc3[n+](C)c3ccccc23)cc1 | inactive |  |  |
| c1csc(-c2sc(-c3ccsc3)cc2Cc2ccsc2)c1 | inactive |  |  |
| Nc1ncnc2c1ncn2C1CC(OC2CCCCO2)C(CO)O1 (configuration not stated) |  | > 200 µM | > 200 µM |
| Cc1ccc(O)c(-c2cscn2)c1 |  | > 200 µM | 107 µM |
